In brackets after ≈: the same amount, converted by molar mass.
What was measured:
Clostridium difficile = assay: MIC, Clostridium difficile in Wilkins-Chalgren Anaerobe Agar; format: cell-based; details: Table 4
Method: (§1) Susceptibility testing for all aerobic organisms with the exception of Streptococcus pneumoniae was performed by two-fold serial antibiotic dilutions in Mueller-Hinton Broth supplemented with 50 μg/ml Ca^2+ unless otherwise noted. Susceptibility testing for S. pneumoniae was performed by two-fold serial antibiotic dilutions in Brain-Heart-Infusion Broth supplemented with 50 μg/ml Ca^2+ unless otherwise noted. Actively growing broth cultures were diluted to contain […] by adjusting to an OD600 of 0.2-0.3. They were then diluted a further 1:100 in fresh sterile broth. The assays were performed in duplicate in sterile 96-well microtitre plates in a total volume of 200 μl (160 μl broth, 20 μl antimicrobial agent, 20 μl inoculum) in a concentration range from 64 μg/ml to 0.06 μg/ml. […] Clinical isolates of Clostridium difficile were tested in Wilkins-Chalgren Anaerobe Agar under anaerobic conditions. In all cases, vancomycin was used as a reference antibiotic

[1] = test system: Bifidobacterium adolescentis; assay: MIC against intestinal flora organisms, Bifidobacterium adolescentis; format: cell-based; details: Bifidobacterium adolescentis NCTC 11814; Table 5
S. acidominimus = assay: MIC susceptibility testing, S. acidominimus; format: cell-based; details: S. acidominimus 7862865; Viridans streptococci; Table 3
Method: as §1

M. luteus = assay: MIC susceptibility testing, M. luteus; format: cell-based; details: M. luteus 4698; Table 2
Method: as §1

S. oralis = assay: MIC susceptibility testing, S. oralis; format: cell-based; details: S. oralis 7862912.1; Viridans streptococci; Table 3
Method: as §1

Bacteroides fragilis = assay: MIC against intestinal flora organisms, Bacteroides fragilis; format: cell-based; details: Bacteroides fragilis NCTC 9343; Table 5
S. pneumoniae = assay: MIC susceptibility testing, S. pneumoniae (Brain-Heart-Infusion Broth); format: cell-based, Streptococcus pneumoniae; details: S. pneumoniae R6; Table 2
Method: as §1

S. epidermidis = assay: MIC susceptibility testing, S. epidermidis; format: cell-based, Staphylococcus epidermidis
Method: as §1

E. faecalis = assay: MIC susceptibility testing, E. faecalis; format: cell-based
Method: as §1

S. constellatus = assay: MIC susceptibility testing, S. constellatus; format: cell-based; details: S. constellatus GRL05065; Viridans streptococci; Table 3
Method: as §1

S. aureus = assay: MIC susceptibility testing, S. aureus; format: cell-based, Staphyloccus aureus
Method: as §1

[2] = test system: Bacteroides thetaiotaomicron; assay: MIC against intestinal flora organisms, Bacteroides thetaiotaomicron; format: cell-based; details: Bacteroides thetaiotaomicron NCTC 10582; Table 5
E. coli = assay: MIC against intestinal flora organisms, E. coli; format: cell-based
Method: as §1

Bifidobacterium longum = assay: MIC against intestinal flora organisms, Bifidobacterium longum; format: cell-based; details: Bifidobacterium longum NCTC 11818; Table 5
[3] = Stability in simulated gastric fluid (SGF); format: in vitro ADME; details: 37° C., analytical HPLC
Method: Nisin, mersacidin, compound I and compound III were tested for their susceptibility towards enzymatic digestion in the stomach. Nisin, mersacidin and compound III were tested for their susceptibility towards enzymatic digestion in the intestine. The SGF and SIF were based on the standard USP solutions for simulated gastric and simulated intestinal fluids and their activity confirmed against Bovine Serum Albumin (Hilger et al, Clin. Exp. Immunol. 2001, 123, 387-94). The compounds were incubated in SGF or SIF at 37° C. and their concentrations quantified by analytical HPLC (UV detection at 210 nm). The potential degradation of each compound was also monitored qualitatively by measuring in vitro antibacterial activity against Micrococcus luteus.

S. mitis = assay: MIC susceptibility testing, S. mitis; format: cell-based; details: Viridans streptococci, Table 3
Method: as §1

SMILES: CCC(C)[C@@H]1NC(=O)[C@H](C(C)C)NC(=O)[C@H]2NC(=O)CNC(=O)[C@@H]3CS[C@@H](C)[C@@H](NC(=O)[C@H]4CSC[C@H](N)C(=O)N[C@@H](CO)C(=O)NCC(=O)N[C@@H](Cc5c[nH]c6ccccc56)C(=O)N[C@@H](C(C)C)C(=O)N4)C(=O)N[C@@H](CC(C)C)C(=O)N[C@@H](C(=O)N[C@@H](C(C)CC)C(=O)N[C@@H](CCC(=O)O)C(=O)N3)[C@H](C)SC[C@H](NC1=O)C(=O)N[C@@H](C)C(=O)N[C@H](C(=O)NCCO)C[S+]([O-])[C@H]2C (some centres unmarked) [Compound III, Actagardine N-[2-ethanolamine]monocarboxamide]
- MIC (Clostridium difficile; C. difficile 027C): 1 µg/mL (≈ 0.517 µM)
- MIC (Clostridium difficile; C. difficile 027SM): 1 µg/mL (≈ 0.517 µM)
- MIC (Clostridium difficile; C. difficile 19126): 2 µg/mL (≈ 1.03 µM)
- MIC (Clostridium difficile; C. difficile 37779): 2 µg/mL (≈ 1.03 µM)
- MIC (Clostridium difficile; C. difficile B32): 2 µg/mL (≈ 1.03 µM)
- MIC (Clostridium difficile; C. difficile E4): 1 µg/mL (≈ 0.517 µM)
- MIC (Clostridium difficile; C. difficile E16): 2 µg/mL (≈ 1.03 µM)
- MIC (Clostridium difficile; C. difficile E101): 2 µg/mL (≈ 1.03 µM)
- MIC (Clostridium difficile; C. difficile P24): 2 µg/mL (≈ 1.03 µM)
- MIC (Clostridium difficile; C. difficile P49): 1 µg/mL (≈ 0.517 µM)
- MIC (Clostridium difficile; C. difficile P59): 1 µg/mL (≈ 0.517 µM)
- MIC (Clostridium difficile; C. difficile P62): 1 µg/mL (≈ 0.517 µM)
- Minimal Inhibitory Concentration (MIC) [1]: 32 µg/mL
- MIC (S. acidominimus): 4 µg/mL (≈ 2.07 µM)
- MIC (M. luteus): 1 µg/mL (≈ 0.517 µM)
- MIC (S. oralis): 8 µg/mL (≈ 4.14 µM)
- Minimal Inhibitory Concentration (MIC) (Bacteroides fragilis): >64 µg/mL
- MIC (S. pneumoniae): 4 µg/mL (≈ 2.07 µM)
- MIC (S. epidermidis; S. epidermidis 7753921, Methicillin resistant, Table 3): >32 µg/mL
- MIC (S. epidermidis; S. epidermidis 7755298, Methicillin resistant, Table 3): >32 µg/mL
- MIC (S. epidermidis; S. epidermidis 7865688, Methicillin resistant, Table 3): >32 µg/mL
- MIC (S. epidermidis; S. epidermidis GRL05001, Methicillin sensitive, Table 3): >32 µg/mL
- MIC (S. epidermidis; S. epidermidis GRL05002, Methicillin sensitive, Table 3): >32 µg/mL
- MIC (S. epidermidis; S. epidermidis GRL05003, Methicillin sensitive, Table 3): 32 µg/mL (≈ 16.6 µM)
- MIC (S. epidermidis; S. epidermidis GRL05004, Methicillin sensitive, Table 3): 32 µg/mL (≈ 16.6 µM)
- MIC (S. epidermidis; S. epidermidis GRL05005, Methicillin sensitive, Table 3): >32 µg/mL
- MIC (S. epidermidis; S. epidermidis GRL05006, Methicillin sensitive, Table 3): >32 µg/mL
- MIC (S. epidermidis; S. epidermidis GRL05007, Methicillin sensitive, Table 3): >32 µg/mL
- MIC (S. epidermidis; S. epidermidis GRL05008, Methicillin sensitive, Table 3): >32 µg/mL
- MIC (S. epidermidis; S. epidermidis GRL05009, Methicillin sensitive, Table 3): >32 µg/mL
- MIC (S. epidermidis; S. epidermidis GRL05010, Methicillin sensitive, Table 3): >32 µg/mL
- MIC (S. epidermidis; S. epidermidis GRL05011, Methicillin resistant, Table 3): >32 µg/mL
- MIC (S. epidermidis; S. epidermidis GRL05013, Methicillin resistant, Table 3): >32 µg/mL
- MIC (S. epidermidis; S. epidermidis GRL05014, Methicillin resistant, Table 3): >32 µg/mL
- MIC (S. epidermidis; S. epidermidis GRL05015, Methicillin resistant, Table 3): >32 µg/mL
- MIC (S. epidermidis; S. epidermidis GRL05017, Methicillin resistant, Table 3): >32 µg/mL
- MIC (S. epidermidis; S. epidermidis GRL05019, Methicillin resistant, Table 3): >32 µg/mL
- MIC (S. epidermidis; S. epidermidis GRL05020, Methicillin resistant, Table 3): 32 µg/mL (≈ 16.6 µM)
- MIC (S. epidermidis; S. epidermis 11047, Table 2): 32 µg/mL (≈ 16.6 µM)
- MIC (E. faecalis; E. faecalis 29212, Table 2): 4 µg/mL (≈ 2.07 µM)
- MIC (E. faecalis; E. faecalis 7754422, Vancomycin sensitive enterococci, Table 3): 8 µg/mL (≈ 4.14 µM)
- MIC (E. faecalis; E. faecalis GRL05023, Vancomycin sensitive enterococci, Table 3): 8 µg/mL (≈ 4.14 µM)
- MIC (E. faecalis; E. faecalis GRL05024, Vancomycin sensitive enterococci, Table 3): 8 µg/mL (≈ 4.14 µM)
- MIC (E. faecalis; E. faecalis GRL05026, Vancomycin sensitive enterococci, Table 3): 8 µg/mL (≈ 4.14 µM)
- MIC (E. faecalis; E. faecalis GRL05027, Vancomycin sensitive enterococci, Table 3): 8 µg/mL (≈ 4.14 µM)
- MIC (E. faecalis; E. faecalis GRL05029, Vancomycin sensitive enterococci, Table 3): 4 µg/mL (≈ 2.07 µM)
- MIC (E. faecalis; E. faecalis GRL05030, Vancomycin sensitive enterococci, Table 3): 4 µg/mL (≈ 2.07 µM)
- MIC (S. constellatus): >32 µg/mL
- MIC (S. aureus; S. aureus 2, Vancomycin intermediate, Table 3): 32 µg/mL (≈ 16.6 µM)
- MIC (S. aureus; S. aureus 26, Vancomycin intermediate, Table 3): 32 µg/mL (≈ 16.6 µM)
- MIC (S. aureus; S. aureus 12232, Methicillin resistant, Table 3): 8 µg/mL (≈ 4.14 µM)
- MIC (S. aureus; S. aureus G15, Methicillin sensitive, Table 3): >32 µg/mL
- MIC (S. aureus; S. aureus G20, Methicillin sensitive, Table 3): 32 µg/mL (≈ 16.6 µM)
- MIC (S. aureus; S. aureus G22, Methicillin sensitive, Table 3): 32 µg/mL (≈ 16.6 µM)
- MIC (S. aureus; S. aureus G23, Methicillin sensitive, Table 3): 32 µg/mL (≈ 16.6 µM)
- MIC (S. aureus; S. aureus G28, Methicillin sensitive, Table 3): 16 µg/mL (≈ 8.28 µM)
- MIC (S. aureus; S. aureus G30, Methicillin sensitive, Table 3): 32 µg/mL (≈ 16.6 µM)
- MIC (S. aureus; S. aureus G31, Methicillin sensitive, Table 3): >32 µg/mL
- MIC (S. aureus; S. aureus G32, Methicillin sensitive, Table 3): 32 µg/mL (≈ 16.6 µM)
- MIC (S. aureus; S. aureus G33, Methicillin sensitive, Table 3): 32 µg/mL (≈ 16.6 µM)
- MIC (S. aureus; S. aureus G35, Methicillin sensitive, Table 3): >32 µg/mL
- MIC (S. aureus; S. aureus MI, Vancomycin intermediate, Table 3): 32 µg/mL (≈ 16.6 µM)
- MIC (S. aureus; S. aureus Mu3, Vancomycin intermediate, Table 3): 32 µg/mL (≈ 16.6 µM)
- MIC (S. aureus; S. aureus Mu50, Vancomycin intermediate, Table 3): 32 µg/mL (≈ 16.6 µM)
- MIC (S. aureus; S. aureus NJ, Vancomycin intermediate, Table 3): >32 µg/mL
- MIC (S. aureus; S. aureus R33, Table 2): 16 µg/mL (≈ 8.28 µM)
- MIC (S. aureus; S. aureus R34, Methicillin resistant, Table 3): 8 µg/mL (≈ 4.14 µM)
- MIC (S. aureus; S. aureus R36, Methicillin resistant, Table 3): 16 µg/mL (≈ 8.28 µM)
- MIC (S. aureus; S. aureus R39, Methicillin resistant, Table 3): >32 µg/mL
- MIC (S. aureus; S. aureus R40, Methicillin resistant, Table 3): 32 µg/mL (≈ 16.6 µM)
- MIC (S. aureus; S. aureus SH1000, Methicillin sensitive, Table 3): 16 µg/mL (≈ 8.28 µM)
- MIC (S. aureus; S. aureus SH1000, Table 2): 8 µg/mL (≈ 4.14 µM)
- MIC (S. aureus; S. aureus V99, Vancomycin intermediate, Table 3): 16 µg/mL (≈ 8.28 µM)
- MIC (S. aureus; S. aureus W71, Methicillin resistant, Table 3): 32 µg/mL (≈ 16.6 µM)
- MIC (S. aureus; S. aureus W74, Methicillin resistant, Table 3): 32 µg/mL (≈ 16.6 µM)
- MIC (S. aureus; S. aureus W96, Methicillin resistant, Table 3): >32 µg/mL
- MIC (S. aureus; S. aureus W97, Methicillin resistant, Table 3): >32 µg/mL
- MIC (S. aureus; S. aureus W98, Methicillin resistant, Table 3): 32 µg/mL (≈ 16.6 µM)
- MIC (S. aureus; S. aureus W99, Methicillin resistant, Table 3): 32 µg/mL (≈ 16.6 µM)
- Minimal Inhibitory Concentration (MIC) [2]: >64 µg/mL
- Minimal Inhibitory Concentration (MIC) (E. coli; E. coli ATCC 25922, Table 5): >64 µg/mL
- Minimal Inhibitory Concentration (MIC) (E. coli; E. coli DC2 (membrane more susceptible), Table 5, first line): >64 µg/mL
- Minimal Inhibitory Concentration (MIC) (E. coli; E. coli DC2 (membrane more susceptible), Table 5, second line): >64 µg/mL
- Minimal Inhibitory Concentration (MIC) (Bifidobacterium longum): 32 µg/mL
- degradation in Simulated Gastric Fluid [3]: did not show appreciable degradation
- MIC (S. mitis; S. mitis 1 7722543): 4 µg/mL (≈ 2.07 µM)
- MIC (S. mitis; S. mitis 1 7863547): 4 µg/mL (≈ 2.07 µM)
- MIC (S. mitis; S. mitis GRL05062): 8 µg/mL (≈ 4.14 µM)
- MIC (S. mitis; S. mitis GRL05067): 16 µg/mL (≈ 8.28 µM)
